{"source": "patent US20070054965A1", "about": "“AMPK activating agent” (Kao Corporation, priority 2005, published 2007)", "key": {"[1]": {"system": "lipid metabolism activity (β-oxidation activity)", "assay": "Lipid metabolism activity (β-oxidation activity) of liver and skeletal muscle after oral administration", "assay_type": "in vivo, mice", "protocol": "Seven-week-old Balb/c male mice were divided into 2 groups, to which a physiological saline (control) or nootkatone at 200 mg/kg of body weight was then orally administered for 10 consecutive days. Then, their livers and skeletal muscles (gastrocnemius muscle+soleus muscle) were collected. The livers and skeletal muscles were respectively homogenized in a buffer (250 mM sucrose, 1 mM EDTA in 10 mM HEPES (pH 7.2)), and the insoluble tissue residues were removed by centrifugation to obtain supernatants. The obtained supernatants were measured for protein levels. The protein levels were adjusted among samples to constant levels, and the samples were used in the measurement of lipid metabolism activity (β-oxidation activity). A 100-μg aliquot of the supernatant protein was reacted at 37° C. for 20 minutes with 0.1 μCi [^14C]-palmitic acid in a buffer (50 mM Tris-HCl (pH 8.0), 40 mM NaCl, 2 mM KCl, 2 mM MgCl2, 1 mM DTT, 5 mM ATP, 0.2 mM L-carnitine, 0.2 mM NAD, 0.06 mM FAD, 0.12 mM CoA, 3 mM α-cyclodextrin) at the final volume of 200 μL. The reaction was terminated with 200 μL of 0.6 N perchloric acid, and the unreacted [^14C]-palmitic acid was removed 3 times with 1 mL hexane. Lipid-degrading activity was measured by measuring radioactivity of the aqueous layer.\nThe degree of the lipid-degrading activity was indicated as a relative value to that of the control defined as 100."}, "[2]": {"assay": "Antiobesity, antidiabetic and antilifestyle-related disease effects in C57BL/6 mice raised on high-fat diet", "assay_type": "in vivo", "protocol": "The antiobesity, antidiabetic, and antilifestyle-related disease effects of nootkatone were evaluated as described below.\nSeven-week-old C57BL/6 male mice were divided into 3 groups each containing 10 mice and raised with each diet of the composition described in Table 2.\nTwenty-two weeks later, their body weights were measured, while blood was collected from the mice under ether anesthesia and under non-fasting conditions to measure serum glucose, cholesterol, triglyceride, insulin, and leptin levels. The amount of visceral fat (epididymal fat, retroperitoneal fat, and perirenal fat) was also measured."}, "[3]": {"assay": "Endurance-enhancing and antifatigue effects, maximum swimming time of mice in a current water pool", "assay_type": "in vivo", "conditions": "for Maximum swimming time: 7 L/min, Balb/c male mice", "protocol": "The endurance-enhancing and antifatigue effects of nootkatone were evaluated as described below. Nootkatone used was a product of Avocado.\nThe endurance-enhancing and antifatigue effects were evaluated according to the measurement method of maximum swimming time of mice (Reference: Am J Physiol Regul Integr Comp Physiol, Vol. 288, R708-R715, 2005) in a current water pool. The experimental pool used was a clear acrylic pool (90 cm long×45 cm wide×45 cm deep) filled to a depth of 38 cm with water maintained at 34° C. with a heater. The current in the pool was generated with a pump (C-P60H, manufactured by Hitachi), and the current speed was adjusted by connecting Water flowmeter (Tofco) to the pump and opening and closing a valve. The current speed was measured with a digital current meter (SV-101-25S, Sankou Seimitsu Kogyo).\nExperimental animals used were 5-week-old Balb/c male mice (Charles River Laboratories, Inc.). The mice were preliminarily raised for 1 week under a constant raising environment (23±2° C., light period: 7 a.m. to 7 p.m.) and acclimated. In subsequent 1-week training, the mice were accustomed to swimming exercise three times a week (subjected to swimming exercise for 30 minutes at a current speed of 5 L/min on the first day, and for 30 minutes at a current speed of 6 L/min on the third and fifth days). […] The mice were divided into 2 groups, a test diet group and a control diet group, each containing 8 mice, to prevent a difference in maximum swimming time between the groups. Diets prepared in the formulation composition shown in Table 8 were used to raise the mice for 10 weeks. During this period, the measurement of maximum swimming time (7 L/min) and training (6 L/min, 30 minutes) were performed once every week."}, "[4]": {"system": "AMPKα", "assay": "AMPK-activating action in C2C12 muscle cells, AMPKα phosphorylation (Western blot)", "assay_type": "cell-based, murine", "conditions": "for Phospho-AMPKα: 60 minutes, C2C12, relative value to control defined as 100", "protocol": "(§1) A muscle cell line (C2C12) was used to evaluate the AMPK-activating action of nootkatone according to the procedures below with AMPKα and AMPKβ phosphorylation as indexes.\nCells of the murine muscle cell line (C2C12) were seeded onto a 25 cm^2 flask and cultured in DMEM (+10% FBS, +antimicrobial agent) at 37° C. for 1 to 2 days. When the cells became confluent, the culture solution was removed, and the cells were washed with PBS (−) and further cultured for 7 to 8 days in fresh DMEM (2% (V/V) horse serum), which was in turn replaced by a fresh culture solution every 2 to 3 days. The culture solution was then removed, and the cells were washed with PBS (−) and further cultured in fresh DMEM (−FBS) for 1 day. After the removal of the culture solution, the cells were cultured in DMEM (−FBS) containing a predetermined concentration of nootkatone (obtained from Wako Pure Chemical Industries, Ltd.) for 60 minutes. After the culture solution was subsequently removed and the cells were washed with PBS (−), 200 μL of cell lysis solution (10 mmol/L Tris (pH 7.4), 50 mmol/L sodium chloride, 30 mmol/L sodium pyrophosphate, 0.5% (V/V) Triton X-100, protease inhibitor cocktail (SIGMA P2714), phosphatase inhibitor cocktail-1 (SIGMA P2850), phosphatase inhibitor cocktail-2 (SIGMA P5726)) was added and the cell lysis solution was collected with a cell scraper. The collected cell lysis solution was well homogenized by passing it through a syringe with a 23G needle three times and then left on ice for 30 minutes. The homogenate was centrifuged at 15000 r/min at 4° C. for 15 minutes, and the resulting supernatant protein was used in the measurement below.\n(§2) The concentration of the supernatant protein was measured, and the protein concentrations were then adjusted among samples to constant concentrations. […]\n(§3) Predetermined amounts (approximately 20 to 40 μg) of the samples for electrophoresis were subjected to SDS-PAGE (12% gel) and transferred to a membrane. Then, phospho-AMPKα and phospho-AMPKβ were detected by using anti-phospho-AMPKα ([…]) antibodies (manufactured by Cell Signaling Technology, Inc.) or anti-phospho-AMPKβ (Ser108) antibodies (manufactured by Cell Signaling Technology, Inc.) as primary antibodies, anti-rabbit-HRP antibodies (manufactured by Amersham Biosciences) as secondary antibodies, and Phototope-HRP Western Detection System (manufactured by Cell Signaling Technology, Inc.) as a detection reagent. The degree of AMPK activation was indicated as a relative value to that of a control (sample-free group) defined as 100 by digitizing (pixelizing) detected band strength by image analysis (EDAS290 image analysis system; KODAK)."}, "[5]": {"system": "AMPKβ", "assay": "AMPK-activating action in C2C12 muscle cells, AMPKβ phosphorylation (Western blot)", "assay_type": "cell-based, murine", "conditions": "60 minutes, relative value to control defined as 100", "protocol": "as §1\nCells of the murine muscle cell line (C2C12) were seeded onto a 25 cm^2 flask and cultured in DMEM (+10% FBS, +antimicrobial agent) at 37° C. for 1 to 2 days. When the cells became confluent, the culture solution was removed, and the cells were washed with PBS (−) and further cultured for 7 to 8 days in fresh DMEM (2% (V/V) horse serum), which was in turn replaced by a fresh culture solution every 2 to 3 days. The culture solution was then removed, and the cells were washed with PBS (−) and further cultured in fresh DMEM (−FBS) for 1 day. After the removal of the culture solution, the cells were cultured in DMEM (−FBS) containing a predetermined concentration of nootkatone (obtained from Wako Pure Chemical Industries, Ltd.) for 60 minutes. […]\nas §2, §3"}, "[6]": {"conditions": "Group 3 (0.5% nootkatone), 22 weeks"}, "[7]": {"conditions": "Group 3: high-fat diet with 0.5% nootkatone, 22 weeks, C57BL/6 male mice"}, "[8]": {"conditions": "serum, non-fasting, Group 3: high-fat diet with 0.5% nootkatone, 22 weeks"}}}
{"smiles": "C=C(C)[C@@H]1CCC2=CC(=O)C[C@@H](C)[C@]2(C)C1", "note": "(stereo in doubt) [Nootkatone, 4,4a,5,6,7,8-hexahydro-6-isopropenyl-4,4a-dimethyl-2(3H)-naphthalenone]", "values": [{"measurement": "Lipid-degrading activity (β-oxidation activity), skeletal muscle", "setting": "[1]; 200 mg/kg orally for 10 consecutive days, Balb/c male mice, gastrocnemius + soleus muscle, relative value to control defined as 100", "value": 271}, {"measurement": "Lipid-degrading activity (β-oxidation activity), liver", "setting": "[1]; 200 mg/kg orally for 10 consecutive days, Balb/c male mice, relative value to control defined as 100", "value": 273}, {"measurement": "Lipid-degrading activity (β-oxidation activity) of the liver and skeletal muscle", "setting": "[1]; mice given nootkatone 200 mg/kg, 10 days, versus control", "value": "remarkably increased"}, {"measurement": "Increment of body weights and amount of visceral fat", "setting": "[2]; Group 3 (0.5% nootkatone) as compared with Group 2", "value": "remarkably reduced"}, {"measurement": "Effect on rise in blood cholesterol level", "setting": "[2]; [6]", "value": "excellent inhibitory effect"}, {"measurement": "Effect on rise in blood insulin level", "setting": "[2]; [6]", "value": "excellent inhibitory effect"}, {"measurement": "Effect on rise in blood leptin level", "setting": "[2]; [6]", "value": "excellent inhibitory effect"}, {"measurement": "Effect on rise in blood triglyceride level", "setting": "[2]; [6]", "value": "excellent inhibitory effect"}, {"measurement": "Effect on rise in blood-glucose level", "setting": "[2]; [6]", "value": "excellent inhibitory effect"}, {"measurement": "Body weight", "setting": "[2]; [7]", "value": 30.4, "unit": "g"}, {"measurement": "Epididymal fat", "setting": "[2]; [7]", "value": 0.47, "unit": "g"}, {"measurement": "Perirenal fat", "setting": "[2]; [7]", "value": 0.07, "unit": "g"}, {"measurement": "Retroperitoneal fat", "setting": "[2]; [7]", "value": 0.15, "unit": "g"}, {"measurement": "Glucose", "setting": "[2]; [8]", "value": 212.3, "unit": "mg/dL"}, {"measurement": "Insulin", "setting": "[2]; [8]", "value": 1.26, "unit": "ng/mL"}, {"measurement": "Leptin", "setting": "[2]; [8]", "value": 6.2, "unit": "ng/mL"}, {"measurement": "Total cholesterol", "setting": "[2]; [8]", "value": 131.3, "unit": "mg/dL"}, {"measurement": "Triglyceride", "setting": "[2]; [8]", "value": 54.3, "unit": "mg/dL"}, {"measurement": "Maximum swimming time", "setting": "[3]; after 10 week raising on test diet with 0.2% nootkatone", "value": "40.01 ± 3.17", "unit": "min"}, {"measurement": "Maximum swimming time", "setting": "[3]; before raising (baseline of test diet group)", "value": "27.31 ± 1.72", "unit": "min"}, {"measurement": "Maximum swimming time after 10-week raising", "setting": "[3]; test diet containing nootkatone as compared with the control diet group", "value": "significantly prolonged"}, {"measurement": "AMPK-activating action in the muscle cells", "setting": "[4]; C2C12, summary of Table 1", "value": "strong AMPK-activating action"}, {"measurement": "Phospho-AMPKα", "setting": "[4]; nootkatone 50 μmol/L", "value": 402}, {"measurement": "Phospho-AMPKα", "setting": "[4]; nootkatone 100 μmol/L", "value": 952}, {"measurement": "Phospho-AMPKα", "setting": "[4]; nootkatone 150 μmol/L", "value": 1077}, {"measurement": "Phospho-AMPKβ", "setting": "[5]; nootkatone 50 μmol/L", "value": 241}, {"measurement": "Phospho-AMPKβ", "setting": "[5]; nootkatone 100 μmol/L", "value": 314}, {"measurement": "Phospho-AMPKβ", "setting": "[5]; nootkatone 150 μmol/L", "value": 358}]}
